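Grown in 96-well plates, cells were treated for 48 hours with each compound at five concentrations. Insufficient inhibition: endpoint recorded as highest concentration tested. Abbreviation: GI50, concentration required for 50% inhibition of growth. TGI is the concentration that stops growth completely.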
Experiments:
Test in all cases: growth of human tumour cells (NCI), 48 h
OVCAR-4 ovarian = system: OVCAR-4 ovarian
SNB-19 CNS = system: SNB-19 CNS
TK-10 renal = system: TK-10 renal
MDA-MB-468 breast = system: MDA-MB-468 breast
NCI-H23 lung = system: NCI-H23 lung
ACHN renal = system: ACHN renal
HL-60(TB) leukemia = system: HL-60(TB) leukemia
DU-145 prostate = system: DU-145 prostate
UACC-257 melanoma = system: UACC-257 melanoma
SN12C renal = system: SN12C renal
CCRF-CEM leukemia = system: CCRF-CEM leukemia
SR leukemia = system: SR leukemia
UO-31 renal = system: UO-31 renal
HCC-2998 colon = system: HCC-2998 colon
T-47D breast = system: T-47D breast
786-0 renal = system: 786-0 renal
NCI-H226 lung = system: NCI-H226 lung
HT29 colon = system: HT29 colon
NCI-H522 lung = system: NCI-H522 lung
SF-295 CNS = system: SF-295 CNS
SF-539 CNS = system: SF-539 CNS
NCI/ADR-RES ovarian = system: NCI/ADR-RES ovarian
BT-549 breast = system: BT-549 breast
MDA-MB-435 = system: MDA-MB-435
EKVX NSCLC = system: EKVX NSCLC
SK-MEL-28 melanoma = system: SK-MEL-28 melanoma
HS 578T breast = system: HS 578T breast
LOX IMVI melanoma = system: LOX IMVI melanoma
KM12 colon = system: KM12 colon
SK-MEL-2 melanoma = system: SK-MEL-2 melanoma
MCF7 breast = system: MCF7 breast
OVCAR-5 ovarian = system: OVCAR-5 ovarian
MOLT-4 leukemia = system: MOLT-4 leukemia
M14 melanoma = system: M14 melanoma
SF-268 CNS = system: SF-268 CNS
OVCAR-3 ovarian = system: OVCAR-3 ovarian
SK-MEL-5 melanoma = system: SK-MEL-5 melanoma
HCT-116 colon = system: HCT-116 colon
RXF 393 renal = system: RXF 393 renal
SK-OV-3 ovarian = system: SK-OV-3 ovarian
COLO 205 colon = system: COLO 205 colon
CAKI-1 renal = system: CAKI-1 renal
K-562 leukemia = system: K-562 leukemia
HOP-62 NSCLC = system: HOP-62 NSCLC
MDA-MB-231 breast = system: MDA-MB-231 breast
A498 renal = system: A498 renal
A549 NSCLC = system: A549 NSCLC
SW-620 colon = system: SW-620 colon
PC-3 prostate = system: PC-3 prostate
U251 CNS = system: U251 CNS
SNB-75 CNS = system: SNB-75 CNS
OVCAR-8 ovarian = system: OVCAR-8 ovarian
MALME-3M melanoma = system: MALME-3M melanoma
HOP-92 NSCLC = system: HOP-92 NSCLC
RPMI-8226 leukemia = system: RPMI-8226 leukemia
IGROV1 ovarian = system: IGROV1 ovarian
HCT-15 colon = system: HCT-15 colon
UACC-62 melanoma = system: UACC-62 melanoma
NCI-H460 lung = system: NCI-H460 lung

## O=C(c1ccccc1)c1ccc2nc(-c3ccccc3Br)[nH]c2c1
OVCAR-4 ovarian
  GI50: 3.72 µM
  TGI: 13.7 µM
SNB-19 CNS
  GI50: 4.41 µM
  TGI: 16.8 µM
TK-10 renal
  GI50: 8.18 µM
  TGI: 21.3 µM
MDA-MB-468 breast
  GI50: 1.73 µM
  TGI: 3.9 µM
NCI-H23 lung
  GI50: 2.08 µM
  TGI: 6.5 µM
ACHN renal
  GI50: 2.27 µM
  TGI: 5.67 µM
HL-60(TB) leukemia
  GI50: 2.04 µM
  TGI: 6.05 µM
DU-145 prostate
  GI50: 4.33 µM
  TGI: 15.4 µM
UACC-257 melanoma
  GI50: 2.59 µM
  TGI: 12.7 µM
SN12C renal
  GI50: 2.4 µM
  TGI: 6.5 µM
CCRF-CEM leukemia
  GI50: 2.24 µM
  TGI: 15.9 µM
SR leukemia
  GI50: 2.51 µM
  TGI: 12.7 µM
UO-31 renal
  GI50: 4.95 µM
  TGI: 17.4 µM
HCC-2998 colon
  GI50: 8.69 µM
  TGI: 21.7 µM
T-47D breast
  GI50: 2.89 µM
  TGI: 11.3 µM
786-0 renal
  GI50: 2.37 µM
  TGI: 4.77 µM
NCI-H226 lung
  GI50: 2.66 µM
  TGI: 12.2 µM
HT29 colon
  GI50: 2.27 µM
  TGI: 4.63 µM
NCI-H522 lung
  GI50: 1.53 µM
  TGI: 3.07 µM
SF-295 CNS
  GI50: 5.54 µM
  TGI: 18.2 µM
SF-539 CNS
  GI50: 1.77 µM
  TGI: 3.33 µM
NCI/ADR-RES ovarian
  GI50: 2.44 µM
  TGI: 6.66 µM
BT-549 breast
  GI50: 1.53 µM
  TGI: 3.15 µM
MDA-MB-435
  GI50: 3.54 µM
  TGI: 13.2 µM
EKVX NSCLC
  GI50: 2.11 µM
  TGI: 4.92 µM
SK-MEL-28 melanoma
  GI50: 3.69 µM
  TGI: 14.7 µM
HS 578T breast
  GI50: 3.79 µM
  TGI: 54 µM
LOX IMVI melanoma
  GI50: 2.45 µM
  TGI: 10.4 µM
KM12 colon
  GI50: 4.64 µM
  TGI: 18.5 µM
SK-MEL-2 melanoma
  GI50: 2.01 µM
  TGI: 4.92 µM
MCF7 breast
  GI50: 2.15 µM
  TGI: 7.67 µM
OVCAR-5 ovarian
  GI50: 2.48 µM
  TGI: 5.7 µM
MOLT-4 leukemia
  GI50: 2.21 µM
  TGI: 11.5 µM
M14 melanoma
  GI50: 1.77 µM
  TGI: 4.38 µM
SF-268 CNS
  GI50: 3.1 µM
  TGI: 12.3 µM
OVCAR-3 ovarian
  GI50: 2.94 µM
  TGI: 10.4 µM
SK-MEL-5 melanoma
  GI50: 1.85 µM
  TGI: 3.79 µM
HCT-116 colon
  GI50: 2.31 µM
  TGI: 8.15 µM
RXF 393 renal
  GI50: 1.61 µM
  TGI: 3.82 µM
SK-OV-3 ovarian
  GI50: 4.1 µM
  TGI: 12.6 µM
COLO 205 colon
  GI50: 2.04 µM
  TGI: 3.94 µM
CAKI-1 renal
  GI50: 3.24 µM
  TGI: 11.3 µM
K-562 leukemia
  GI50: 2.77 µM
  TGI: > 100 µM
HOP-62 NSCLC
  GI50: 3.23 µM
  TGI: 8.5 µM
MDA-MB-231 breast
  GI50: 4.84 µM
  TGI: 19.5 µM
A498 renal
  GI50: 17.3 µM
  TGI: 33 µM
A549 NSCLC
  GI50: 10.2 µM
  TGI: 28.2 µM
SW-620 colon
  GI50: 3.33 µM
  TGI: 13.2 µM
PC-3 prostate
  GI50: 2.48 µM
  TGI: 10.8 µM
U251 CNS
  GI50: 2 µM
  TGI: 4.59 µM
SNB-75 CNS
  GI50: 3.23 µM
  TGI: 13.4 µM
OVCAR-8 ovarian
  GI50: 3.81 µM
  TGI: 35.4 µM
MALME-3M melanoma
  GI50: 2.11 µM
  TGI: 6.35 µM
HOP-92 NSCLC
  GI50: 2.08 µM
  TGI: 6.48 µM
RPMI-8226 leukemia
  GI50: 2.65 µM
  TGI: 11.8 µM
IGROV1 ovarian
  GI50: 3.51 µM
  TGI: 13.9 µM
HCT-15 colon
  GI50: 1.74 µM
  TGI: 3.78 µM
UACC-62 melanoma
  GI50: 3.57 µM
  TGI: 16.4 µM
NCI-H460 lung
  GI50: 4.22 µM
  TGI: 19.8 µM

## CC(=O)Oc1ccccc1C(=O)Oc1ccc(C(=O)/C=C/c2ccncc2)cc1
OVCAR-4 ovarian
  GI50: 29.7 µM
  TGI: > 100 µM
SNB-19 CNS
  GI50: 15.3 µM
  TGI: 47.3 µM
TK-10 renal
  GI50: 37.4 µM
  TGI: > 100 µM
MDA-MB-468 breast
  GI50: 2.36 µM
  TGI: 8.34 µM
NCI-H23 lung
  GI50: 10.8 µM
  TGI: 30.8 µM
ACHN renal
  GI50: 15.6 µM
  TGI: 44.9 µM
HL-60(TB) leukemia
  GI50: 4.93 µM
  TGI: 34.1 µM
DU-145 prostate
  GI50: 10.5 µM
  TGI: 44.1 µM
UACC-257 melanoma
  GI50: 16.9 µM
  TGI: 63.4 µM
SN12C renal
  GI50: 10.1 µM
  TGI: 45.5 µM
CCRF-CEM leukemia
  GI50: 2.38 µM
  TGI: > 100 µM
SR leukemia
  GI50: 0.407 µM
  TGI: > 100 µM
UO-31 renal
  GI50: 10.3 µM
  TGI: 24 µM
HCC-2998 colon
  GI50: 4.83 µM
  TGI: 16.4 µM
T-47D breast
  GI50: 23.8 µM
  TGI: 97.6 µM
786-0 renal
  GI50: 16.1 µM
  TGI: > 100 µM
NCI-H226 lung
  GI50: 26.4 µM
  TGI: > 100 µM
HT29 colon
  GI50: 3.6 µM
  TGI: 20.1 µM
NCI-H522 lung
  GI50: 4.85 µM
  TGI: 21.5 µM
SF-295 CNS
  GI50: 8.56 µM
  TGI: 58.1 µM
SF-539 CNS
  GI50: 4.29 µM
  TGI: 17.4 µM
NCI/ADR-RES ovarian
  GI50: 20.7 µM
  TGI: > 100 µM
BT-549 breast
  GI50: 17 µM
  TGI: 38.7 µM
MDA-MB-435
  GI50: 4.45 µM
  TGI: 44.3 µM
EKVX NSCLC
  GI50: 14.7 µM
  TGI: 45.7 µM
SK-MEL-28 melanoma
  GI50: 19.3 µM
  TGI: 62.1 µM
HS 578T breast
  GI50: 22.5 µM
  TGI: > 100 µM
LOX IMVI melanoma
  GI50: 1.96 µM
  TGI: 5.87 µM
KM12 colon
  GI50: 3.57 µM
  TGI: 22.2 µM
SK-MEL-2 melanoma
  GI50: 32.5 µM
  TGI: > 100 µM
MCF7 breast
  GI50: 1.1 µM
  TGI: 9.24 µM
OVCAR-5 ovarian
  GI50: 24.9 µM
  TGI: 99.1 µM
MOLT-4 leukemia
  GI50: 15.9 µM
  TGI: 85.9 µM
M14 melanoma
  GI50: 14.5 µM
  TGI: > 100 µM
SF-268 CNS
  GI50: 25 µM
  TGI: > 100 µM
OVCAR-3 ovarian
  GI50: 5.3 µM
  TGI: 26 µM
SK-MEL-5 melanoma
  GI50: 12.4 µM
  TGI: 29.5 µM
RXF 393 renal
  GI50: 5.25 µM
  TGI: 20.8 µM
SK-OV-3 ovarian
  GI50: 30.9 µM
  TGI: > 100 µM
COLO 205 colon
  GI50: 12.7 µM
  TGI: 40.5 µM
CAKI-1 renal
  GI50: 19.3 µM
  TGI: > 100 µM
K-562 leukemia
  GI50: 2.29 µM
  TGI: > 100 µM
HOP-62 NSCLC
  GI50: 27.5 µM
  TGI: > 100 µM
MDA-MB-231 breast
  GI50: 8.6 µM
  TGI: 36.2 µM
A498 renal
  GI50: 20.5 µM
  TGI: 71.4 µM
A549 NSCLC
  GI50: 15.1 µM
  TGI: > 100 µM
SW-620 colon
  GI50: 3.04 µM
  TGI: 18.9 µM
PC-3 prostate
  GI50: 10.4 µM
  TGI: > 100 µM
U251 CNS
  GI50: 3.77 µM
  TGI: 70.8 µM
SNB-75 CNS
  GI50: 15.8 µM
  TGI: > 100 µM
OVCAR-8 ovarian
  GI50: 24.9 µM
  TGI: > 100 µM
MALME-3M melanoma
  GI50: 16.5 µM
  TGI: 51.4 µM
HOP-92 NSCLC
  GI50: 21.1 µM
  TGI: > 100 µM
RPMI-8226 leukemia
  GI50: 1.58 µM
  TGI: 7.19 µM
IGROV1 ovarian
  GI50: 7.4 µM
  TGI: 54 µM
HCT-15 colon
  GI50: 3.55 µM
  TGI: 18.8 µM
UACC-62 melanoma
  GI50: 16.6 µM
  TGI: 42.3 µM
NCI-H460 lung
  GI50: 11.2 µM
  TGI: 48.9 µM

Reference: PubChem BioAssay (NCI)
